According to article PMC11011246 (Cell, 2024):

How the values were obtained:
[1] = system: NrasG12V Cdkn2aARF-/- HCC cells; assay: HCC cell proliferation and trypan blue cell death; type: cell-based, murine; conditions: HRX215 10 μM vs DMSO, up to 72 h
pigs = assay: 85% hepatectomy; type: in vivo, pig
C57BL/6 WT mice [2] = assay: Short-term GAN-NASH model; type: in vivo, mouse; conditions: 10 mg/kg daily, 12 weeks, vs vehicle
[3] = First-in-human phase I trial, pharmacokinetics; type: in vivo; conditions: for Tmax: male, plasma, oral, 50 mg, 50 mg single dose
C57BL/6 WT mice [4] = assay: Short-term CCl4 liver damage model; type: in vivo, mouse; conditions: 0.4, 2, 10 mg/kg p.o., 48 h after CCl4, vs vehicle
healthy male volunteers = assay: First-in-human phase I trial, safety and tolerability; type: in vivo
[5] = system: NrasG12V Trp53-/- HCC cells; assay: HCC cell proliferation and trypan blue cell death; type: cell-based, murine; conditions: HRX215 10 μM vs DMSO, up to 72 h
[6] = 4-week GLP toxicity study; conditions: both, beagle, dog, in vivo, po
[7] = IND-enabling GLP safety pharmacology; type: in vivo, rats, dogs; conditions: GLP studies
[8] = 4-week GLP toxicity study; conditions: both, Wistar Han, rat, in vivo, po
C57BL/6 WT mice [9] = assay: CCl4 liver-damage; conditions: 10 mg/kg p.o., CCl4 3 weeks, 48 h after PH
C57BL/6 WT mice [10] = assay: Partial hepatectomy in wildtype mice; conditions: 48 h after partial hepatectomy
[11] = Pharmacokinetics of HRX215 in mice; type: in vivo, C57BL/6 wildtype mice; conditions: 30 mg/kg p.o.
C57BL/6 WT mice [12] = assay: Long-term GAN-NASH HCC model; type: in vivo, mouse
C57BL/6 WT mice [13] = assay: 4-week treatment/toxicity study in wildtype mice; type: in vivo, mouse; conditions: 10 mg/kg, vs vehicle

With CCCS(=O)(=O)Nc1c(F)ccc(C(=O)c2n[nH]c3ncc(-c4ccncc4)cc23)c1F [HRX215] the cell proliferation [1] was “significantly reduced cell proliferation”, the aspartate aminotransferase (pigs; pigs, 85% hepatectomy) was “only transiently increased after surgery” and the bilirubin plasma levels (pigs; pigs, 85% hepatectomy) was “only a transient rise with a subsequent drop”. For the same compound, the “intracranial pressure (ICP) after surgery” value (pigs; pigs, 85% hepatectomy) was “did not show an increase in ICP values”, the plasma ammonia (pigs; pigs, 85% hepatectomy) was “prevented an increase of plasma ammonium” and the “animals with normal behavior that survived” value (pigs; post-surgery treatment group (start 12 h after surgery)) was 5 out of 6. For the same compound, the “animals with normal behavior that survived” value (pigs; pre-surgery treatment group (start 12 h before surgery)) was 4 out of 6, the “numbers of senescent cells in NASH livers” value (C57BL/6 WT mice [2]) was “found no differences” and the “exposure (Cmax and AUC) versus dose” value ([3]; ascending doses) was “increased proportionally with ascending doses”. For the same compound, the Tmax ([3]; fasting) was 1.2 h, the Tmax ([3]; fed) was 3.9 h and the “hepatocyte death (TUNEL)” value (C57BL/6 WT mice [4]) was “significantly reduced hepatocyte death”. For the same compound, the “mild to moderate adverse effects, percentage” value (healthy male volunteers; HRX215 groups, n = 36) was 36.1%, the “number of mild to moderate adverse effects (subjects/group)” value (healthy male volunteers; HRX215 groups, n = 36) was 13/36 and the “severe or serious adverse events” value (healthy male volunteers; single and multiple doses 5-500 mg) was “no severe or serious adverse events were reported”. For the same compound, the complete blood counts (healthy male volunteers; vs placebo) was “no significant differences”, the cell proliferation [5] was “significantly reduced cell proliferation” and the NOAEL at 4 weeks [6] was 250 mg/kg/day. For the same compound, the “effect on the cardiovascular, neurological, or respiratory system” value [7] was “absence of any effect”, the NOAEL at 4 weeks [8] was 300 mg/kg/day and the “hepatocyte proliferation upon partial hepatectomy in fibrotic livers” value (C57BL/6 WT mice [9]) was “enhance hepatocyte proliferation”. The “proliferating hepatocytes (Ki67)” value (C57BL/6 WT mice [10]; 0.4 mg/kg p.o.) was 15.38%, the “proliferating hepatocytes (Ki67)” value (C57BL/6 WT mice [10]; 2 mg/kg p.o.) was 15.15% and the “proliferating hepatocytes (Ki67)” value (C57BL/6 WT mice [10]; 10 mg/kg p.o.) was 26.3%. For the same compound, the “t(1/2), elimination half-life” value [11] was 3.4 to 3.9 h, the “hepatic inflammation and hepatocyte ballooning” value (C57BL/6 WT mice [12]; 10 mg/kg daily, 12 weeks) was “no reduction of hepatic inflammation and hepatocyte ballooning” and the “hepatocyte proliferation (Ki67)” value (C57BL/6 WT mice [12]; 10 mg/kg daily, 12 weeks) was “slightly increased hepatocyte proliferation”. The liver fibrosis (C57BL/6 WT mice [12]; 10 mg/kg daily, 12 weeks) was “found reduced in HRX215 treated livers, but results missed statistical significance”, the “overall hepatic lipid content” value (C57BL/6 WT mice [12]; 10 mg/kg daily, 12 weeks) was “significant reduction of the overall hepatic lipid content” and the tumor size (C57BL/6 WT mice [12]; 10 mg/kg daily, 12 weeks) was “tendency toward a reduction of tumor size”. The “number of tumor nodules per liver” value (C57BL/6 WT mice [12]; 10 mg/kg daily, 12 weeks, vs baseline and vehicle) was “did not result in a higher number of tumor nodules per liver”, the “numbers of dysplastic premalignant lesions” value (C57BL/6 WT mice [12]; 10 mg/kg daily, 12 weeks, vs vehicle) was “did not reveal significant differences” and the NAS score development (C57BL/6 WT mice [12]; non-tumor bearing liver parts) was “more animals with an improved NAS score and less animals with a worsened NAS score”. The complete blood counts (C57BL/6 WT mice [13]; 4 weeks) was “No significant changes were detected” and the “untargeted metabolomics of plasma and liver” value (C57BL/6 WT mice [13]) was “no safety relevant changes were detected”.
